US12157730B2, “Heteroaryl derivative, method for producing same, and pharmaceutical composition comprising same as effective component” (VORONOI INC., priority 2019, dated 2024)

Molecular target: T1, Ba/F3 cell EGFR Exon20 ins NPH (Homo sapiens, UniProt P00533, INS773NPH)
T1 construct: expressed in transfected cells; host or cells: Ba/F3
Test: Ba/F3 cell proliferation suppression, EGFR Exon20 ins NPH
Format: cell-based
Conditions: GI50 class; Ba/F3 cell line with NPH inserted at Exon20 of EGFR; 72 hours
Procedure, shortened: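 After 72 h compound exposure (twelve 3-fold steps, 0.3 nM–50 um final), live cells were measured by CellTiter-Glo luminescence and growth expressed as % of control to derive GI50. Cells were seeded at 3000–5000 per well a day earlier; Ba/F3 medium contained IL-3; three repeats.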

Row | SMILES | Ba/F3 (NPH) Activity
1 | C=CC(=O)Nc1cc(Nc2cc(N3OCC[C@@H]3c3cccc4ccccc34)ncn2)c(OC)cc1N1CCC(N2CCN(C3CC3)[C@H](C)C2)CC1 [Example 155, N-(2-(4-((R)-4-cyclopropyl-3-methylpiperazine-1-yl)piperidine-1-yl)-4-methoxy-5-((6-((R)-3-(naphthalene-1-yl)isoxazolidine-2-yl)pyrimidine-4-yl)amino)phenyl)acrylamide] | A (GI50 < 50 nM)
2 | C=CC(=O)Nc1cc(Nc2cc(N3OCC[C@@H]3c3ccc(F)c(Cl)c3)ncn2)c(OC)cc1N1C[C@H]2C[C@@H]1CO2 [compound 903, N-(2-((1R,4R)-2-oxa-5-azabicyclo [2.2.1]heptane-5-yl)-5-((6-((R)-3-(3-chloro-4-fluorophenyl)isoxazolidine-2-yl)pyrimidine-4-yl)amino)-4-methoxyphenyl) acrylamide] | A (GI50 < 50 nM)
3 | C=CC(=O)Nc1cc(Nc2cc(N3OCC[C@@H]3c3ccccc3)ncn2)c(OC)cc1N1CCC(N2CCN(C3CC3)CC2)CC1 [Example 56, N-(2-(4-(4-cyclopropylpiperazine-1-yl)piperidine-1-yl)-4-methoxy-5-((6-((R)-3-phenylisoxazolidine-2-yl)pyrimidine-4-yl)amino)phenyl) acrylamide] | A (GI50 < 50 nM)
4 | C=CC(=O)Nc1cc(Nc2cc(N3OCC[C@@H]3c3cc(F)cc(F)c3)ncn2)c(OC)cc1N1CCC(N2CCN(C3CC3)C(C)(C)C2)CC1 [Example 106, N-(2-(4-(4-cyclopropyl-3,3-dimethylpiperazine-1-yl)piperidine-1-yl)-5-((6-((R)-3-(3,5-difluorophenyl)isoxazolidine-2-yl)pyrimidine-4-yl)amino)-4-methoxyphenyl) acrylamide] | A (GI50 < 50 nM)
5 | C=CC(=O)Nc1cc(Nc2cc(N3OCC[C@@H]3c3cccc(F)c3Cl)ncn2)c(OC)cc1N1CCC(N2CCN(C(C)=O)CC2)CC1 [compound 601, N-(2-(4-(4-acetylpiperazine-1-yl)piperidine-1-yl)-5-((6-((R)-3-(2-chloro-3-fluorophenyl)isoxazolidine-2-yl)pyrimidine-4-yl)amino)-4-methoxyphenyl) acrylamide] | A (GI50 < 50 nM)
6 | C=CC(=O)Nc1cc(Nc2cc(N3OCC[C@@H]3c3ccc(F)c(Cl)c3)ncn2)c(OC)cc1N1CCC(N2C[C@@H]3C[C@H]2CO3)CC1 [compound 716, N-(2-(4-((1S,4S)-2-oxa-5-azabicyclo[2.2.1]heptane-5-yl)piperidine-1-yl)-5-((6-((R)-3-(3-chloro-4-fluorophenyl)isoxazolidine-2-yl)pyrimidine-4-yl)amino)-4-methoxyphenyl) acrylamide] | A (GI50 < 50 nM)
7 | C=CC(=O)Nc1cc(Nc2cc(N3OCC[C@@H]3c3cc(F)cc(F)c3)ncn2)c(OC)cc1N1CCO[C@H](C)C1 [compound 338, N-(5-((6-((R)-3-(3,5-difluorophenyl)isoxazolidine-2-yl)pyrimidine-4-yl)amino)-4-methoxy-2-((R)-2-methylmorpholino)phenyl)acrylamide] | B (50 nM ≤ GI50 < 500 nM)
8 | C=CC(=O)Nc1cc(Nc2cc(N3OCC[C@H]3c3c(F)cccc3F)ncn2)c(OC)cc1N1CCC(N2CCN(C3CC3)CC2)CC1 [Example 129, N-(2-(4-(4-cyclopropylpiperazine-1-yl)piperidine-1-yl)-5-((6-((S)-3-(2,6-difluorophenyl)isoxazolidine-2-yl)pyrimidine-4-yl)amino)-4-methoxyphenyl) acrylamide] | C (500 nM ≤ GI50 < 5000 nM)
9 | C=CC(=O)Nc1cc(Nc2cc(N3OCC[C@@H]3c3ccc(F)cc3)ncn2)c(OC)cc1N1CCC(N2CCN(C3COC3)CC2)CC1 [Example 85, N-(5-((6-((R)-3-(4-fluorophenyl)isoxazolidine-2-yl)pyrimidine-4-yl)amino)-4-methoxy-2-(4-(4-(oxetane-3-yl)piperazine-1-yl)piperidine-1-yl)phenyl) acrylamide] | A (GI50 < 50 nM)
10 | C=CC(=O)Nc1cc(Nc2cc(N3OCC[C@@H]3c3ccc(F)c(Cl)c3)ncn2)c(OC)cc1N1CCC(N2CCN(C)CC2)CC1 [compound 719, N-(5-((6-((R)-3-(3-chloro-4-fluorophenyl)isoxazolidine-2-yl)pyrimidine-4-yl)amino)-4-methoxy-2-(4-(4-methylpiperazine-1-yl)piperidine-1-yl)phenyl) acrylamide] | A (GI50 < 50 nM)
11 | C=CC(=O)Nc1cc(Nc2cc(N3OCC[C@@H]3c3cccc(Cl)c3C)ncn2)c(OC)cc1N1CCC(N2CCC(F)(F)CC2)CC1 [compound 581, N-(5-((6-((R)-3-(3-chloro-2-methylphenyl)isoxazolidine-2-yl)pyrimidine-4-yl)amino)-2-(4,4-difluoro-[1,4'-bipiperidine]-1'-yl)-4-methoxyphenyl) acrylamide] | A (GI50 < 50 nM)
12 | C=CC(=O)Nc1cc(Nc2cc(N3OCC[C@H]3c3c(F)cccc3F)ncn2)c(OC)cc1N1CCC(N2CCN(CC)CC2)CC1 [compound 312, N-(5-((6-((S)-3-(2,6-difluorophenyl)isoxazolidine-2-yl)pyrimidine-4-yl)amino)-2-(4-(4-ethylpiperazine-1-yl)piperidine-1-yl)-4-methoxyphenyl) acrylamide] | C (500 nM ≤ GI50 < 5000 nM)
13 | C=CC(=O)Nc1cc(Nc2cc(N3OCC[C@@H]3c3ccc(Cl)c(Cl)c3)ncn2)c(OC)cc1N1CCC(N2C[C@@H]3C[C@H]2CO3)CC1 [compound 688, N-(2-(4-((1S,4S)-2-oxa-5-azabicyclo[2.2.1]heptane-5-yl)piperidine-1-yl)-5-((6-((R)-3-(3,4-dichlorophenyl)isoxazolidine-2-yl)pyrimidine-4-yl)amino)-4-methoxyphenyl) acrylamide] | A (GI50 < 50 nM)
14 | C=CC(=O)Nc1cc(Nc2cc(N3OCC[C@@H]3c3cccc(Cl)c3Cl)ncn2)c(OC)cc1N1CCN(C2CC2)CC1 [compound 518, N-(2-(4-cyclopropylpiperazine-1-yl)-5-((6-((R)-3-(2,3-dichlorophenyl)isoxazolidine-2-yl)pyrimidine-4-yl)amino)-4-methoxyphenyl) acrylamide] | A (GI50 < 50 nM)
15 | C=CC(=O)Nc1cc(Nc2cc(N3OCC[C@@H]3c3cc(F)cc(F)c3)ncn2)c(OC)cc1N1CCC(N2CCN(CC3CC3)CC2)CC1 [Example 92, N-(2-(4-(4-(cyclopropylmethyl)piperazine-1-yl)piperidine-1-yl)-5-((6-((R)-3-(3,5-difluorophenyl)isoxazolidine-2-yl)pyrimidine-4-yl)amino)-4-methoxyphenyl) acrylamide] | A (GI50 < 50 nM)
16 | C=CC(=O)Nc1cc(Nc2cc(N3OCC[C@@H]3c3cc(F)ccc3F)ncn2)c(OC)cc1N1CCN(C)CC1 [compound 818, N-(5-((6-((R)-3-(2,5-difluorophenyl)isoxazolidine-2-yl)pyrimidine-4-yl)amino)-4-methoxy-2-(4-methylpiperazine-1-yl)phenyl)acrylamide] | A (GI50 < 50 nM)
17 | C=CC(=O)Nc1cc(Nc2cc(N3OCC[C@@H]3c3ccc(Cl)c(Cl)c3F)ncn2)c(OC)cc1N1CCC(N2CC[C@H](N(C)C)C2)CC1 [compound 772, N-(5-((6-((R)-3-(3,4-dichloro-2-fluorophenyl)isoxazolidine-2-yl)pyrimidine-4-yl)amino)-2-(4-((S)-3-(dimethylamino)pyrolidine-1-yl)piperidine-1-yl)-4-methoxyphenyl) acrylamide] | B (50 nM ≤ GI50 < 500 nM)
18 | C#Cc1cccc([C@H]2CCON2c2cc(Nc3cc(NC(=O)C=C)c(N4CCC(N5CCN(C)CC5)CC4)cc3OC)ncn2)c1 [compound 649, N-(5-((6-((R)-3-(3-ethynylphenyl)isoxazolidine-2-yl)pyrimidine-4-yl)amino)-4-methoxy-2-(4-(4-methylpiperazine-1-yl)piperidine-1-yl)phenyl) acrylamide] | A (GI50 < 50 nM)
19 | C=CC(=O)Nc1cc(Nc2cc(N3OCC[C@@H]3c3cccc(F)c3F)ncn2)c(OC)cc1N1CCC(N2CCN(C)[C@@H](C)C2)CC1 [compound 335, N-(5-((6-((R)-3-(2,3-difluorophenyl)isoxazolidine-2-yl)pyrimidine-4-yl)amino)-2-(4-((S)-3,4-dimethylpiperazine-1-yl)piperidine-1-yl)-4-methoxyphenyl) acrylamide] | A (GI50 < 50 nM)
20 | C=CC(=O)Nc1cc(Nc2cc(N3OCC[C@@H]3c3cccc(C(F)(F)F)c3)ncn2)c(OC)cc1N1CCC(N2CCN(C3CC3)[C@@H](C)C2)CC1 [compound 941, N-(2-(4-((S)-4-cyclopropyl-3-methylpiperazine-1-yl)piperidine-1-yl)-4-methoxy-5-((6-((R)-3-(3-(trifluoromethyl)phenyl)isoxazolidine-2-yl)pyrimidine-4-yl)amino)phenyl) acrylamide] | A (GI50 < 50 nM)
21 | C=CC(=O)Nc1cc(Nc2cc(N3OCC[C@@H]3c3cccc(F)c3F)ncn2)c(OC)cc1N1CCN(C)CC1 [compound 925, N-(5-((6-((R)-3-(2,3-difluorophenyl)isoxazolidine-2-yl)pyrimidine-4-yl)amino)-4-methoxy-2-(4-methylpiperazine-1-yl)phenyl)acrylamide] | A (GI50 < 50 nM)
22 | C=CC(=O)Nc1cc(Nc2cc(N3OCC[C@@H]3Cc3cccc(F)c3C)ncn2)c(OC)cc1N1CCC(N2CCN(C3CC3)[C@@H](C)C2)CC1 [compound 1005, N-(2-(4-((S)-4-cyclopropyl-3-methylpiperazine-1-yl)piperidine-1-yl)-5-((6-((S)-3-(3-fluoro-2-methylbenzyl)isoxazolidine-2-yl)pyrimidine-4-yl)amino)-4-methoxyphenyl) acrylamide] | A (GI50 < 50 nM)
